{
  "source": "patent US12377175B2",
  "about": "“Trifunctional constructs with tunable pharmacokinetics useful in imaging and anti-tumor therapies” (Cornell University, priority 2016, dated 2025)",
  "key": {"[1]": {"tested_on": "LNCaP xenograft tumor-bearing mice", "assay": "PET/CT imaging of 66Ga-RPS ligands in LNCaP xenograft mice", "assay_type": "in vivo, mouse", "details": "66Ga PET/CT; for maximum uptake in the tumor (image-derived): over 1, 3, 6 and 24 h post injection", "procedure": "(§1) Inoculation of mice with xenografts: All animal studies were approved by the Institutional Animal Care and Use Committee of Weill Cornell Medicine and were undertaken in accordance with the guidelines set forth by the USPHS Policy on Humane Care and Use of Laboratory Animals. Animals were housed under standard conditions in approved facilities with 12 h light/dark cycles. Food and water was provided ad libitum throughout the course of the studies. Hairless male nu/nu mice were purchased from the Jackson Laboratory. For inoculation in mice, LNCaP cells were suspended at 4×10^7 cells/mL in a 1:1 mixture of PBS:Matrigel (BD Biosciences). Each mouse was injected in the left flank with 0.25 mL of the cell suspension. The mice were imaged when the tumors reached approximately 200-400 mm^3, while biodistributions were conducted when tumors were in the range 100-400 mm^3.\nImaging of ^66Ga-RPS ligands in LNCaP xenograft mice: LNCaP xenograft tumor-bearing mice (2-3 per compound) injected intravenously with a bolus injection of 0.56-5.4 MBq (15-145 μCi) of the ^66Ga-labeled ligand. The specific activity of the tracers was in the range 14.8-47 MBq/μmol (0.4-1.27 mCi/μmol). The mice were imaged using PET/CT (Inveon™; Siemens Medical Solutions, Inc.) at 1, 3, 6 and 24 h post-injection following inhalation anesthetization with isoflurane. Total acquisition time was 30 min for the 1 h, 3 h and 6 h images, and 60 min for 24 h time point. A CT scan was obtained immediately before the acquisition for both anatomical co-registration and attenuation correction. Images were reconstructed using the Inveon™ software supplied by the vendor. Image-derived tumor and kidney uptake was estimated by comparison to a 10% injected dose […] standard introduced into the imaging field of view. The standard was prepared by dilution of 10% of the injected activity to 1 mL with saline. Volumes of interest (VOIs) were drawn with the aid of the CT and confirmed by PET. The contents of the VOIs were integrated and the calculated counts were converted to […] by direct comparison to the aforementioned standard following correction for activity injected."}, "[2]": {"tested_on": "LNCaP xenograft tumor-bearing mice", "assay": "Biodistribution studies of 177Lu-labeled ligands in LNCaP xenograft mice", "assay_type": "in vivo, mouse", "details": "for Max. Tumor Uptake: corresponding 177Lu-labeled compound, 4 h p.i. (a)", "procedure": "as §1\nBiodistribution studies of 177Lu-labeled ligands in LNCaP xenograft mice: LNCaP xenograft tumor-bearing mice (5 per time point per compound) were injected intravenously with a bolus injection of 348-851 kBq (9.4-23 μCi) and 37-50 ng ([…]) of each ligand. The mice were sacrificed at 4, 24 and 96 h post injection. A blood sample was removed, and a full biodistribution study was conducted on the following organs (with contents): heart, lungs, liver, small intestine, large intestine, stomach, spleen, pancreas, kidneys, muscle, bone and tumor. Tissues were weighed and counted on a 2470 Wizard^2 Automatic Gamma Counter (Perkin Elmer). Counts were corrected for decay and for activity injected, and tissue uptake was expressed as percent injected dose per gram (% ID/g). Standard error measurement was calculated for each data point."}},
  "data": [
    {"molecule": "O=C([O-])CN1CCN(CC(=O)[O-])CCN(CC(=O)O)C(Cc2ccc(NC(=S)NCCCC[C@H](NC(=O)CCOCCOCCOCCOCCn3cc(-c4cccc(NC(=O)NCCCC[C@H](NC(=O)N[C@@H](CCC(=O)O)C(=O)O)C(=O)O)c4)nn3)C(=O)N[C@@H](CCCCNC(=O)Cc3ccc(I)cc3)C(=O)O)cc2)CN(CC(=O)[O-])CC1.[66Ga+3]", "note": "(some centres unmarked) [66Ga-RPS-061]", "values": [
      {"measurement": "kidney uptake (image-derived)", "setting": "[1]; 1 h post injection", "value": "10.5±2.1", "unit": "% ID/cm^3"},
      {"measurement": "tumor uptake (image-derived)", "setting": "[1]; 24 h post injection", "value": "6.1±1.1", "unit": "% ID/cm^3"}
    ]},
    {"molecule": "O=C(O)CCC(NC(=O)NC(CCCCNC(=O)C(Cc1ccc2ccccc2c1)NC(=O)C1CCC(CNC(=O)CN2CCN(CC(=O)O)CCN(CC(=O)O)CCN(CC(=O)O)CC2)CC1)C(=O)O)C(=O)O", "note": "(centres unmarked) [66Ga-PSMA-617, metal not drawn, reference compound]", "values": [
      {"measurement": "maximum kidney uptake (image-derived)", "setting": "[1]", "value": "0.4±0.1", "unit": "% ID/cm^3"},
      {"measurement": "time of maximum uptake in the tumor", "setting": "[1]", "value": 1, "unit": "h"},
      {"measurement": "kidney uptake (image-derived)", "setting": "[1]; 24 h post injection", "value": "0.1±0.1", "unit": "% ID/cm^3"},
      {"measurement": "maximum uptake in the tumor (image-derived)", "setting": "[1]", "value": "3.1±0.4", "unit": "% ID/cm^3"}
    ]},
    {"molecule": "O=C(O)CCC(NC(=O)NC(CCCCNC(=O)Nc1cccc(-c2cnnn2CC(=O)NC(CCCCNC(=S)Nc2ccc(CC3CN(CC(=O)O)CCN(CC(=O)O)CCN(CC(=O)O)CCN3CC(=O)O)cc2)C(=O)NC(CCCCNC(=O)Cc2ccc(I)cc2)C(=O)O)c1)C(=O)O)C(=O)O", "note": "(centres unmarked) [177Lu-RPS-068, metal not drawn]", "values": [
      {"measurement": "blood activity (comparison within the series)", "setting": "[2]; 4 h p.i.", "value": "highest blood activity"}
    ]},
    {"molecule": "O=C(O)CC[C@H](NC(=O)N[C@@H](CCCCNC(=O)Nc1cccc(-c2cn(CCOCCOCCOCCC(=O)N[C@@H](CCCCNC(=S)Nc3ccc(CC4CN(CC(=O)O)CCN(CC(=O)O)CCN(CC(=O)O)CCN4CC(=O)O)cc3)C(=O)N[C@@H](CCCCNC(=O)Cc3ccc(I)cc3)C(=O)O)nn2)c1)C(=O)O)C(=O)O", "note": "(stereo partly drawn) [RPS-063, (((1S)-1-carboxy-5-(3-(3-(1-((14S,17S)-17-carboxy-24-(4-iodophenyl)-12,15,23-trioxo-14-(4-(3-(4-((1,4,7,10-tetrakis(carboxymethyl)-1,4,7,10-tetraazacyclododecan-2-yl)methyl)phenyl)thioureido)butyl)-3,6,9-trioxa-13,16,22-triazatetracosyl)-1H-1,2,3-triazol-4-yl)phenyl)ureido)pentyl)carbamoyl)-L-glutamic acid]", "values": [
      {"measurement": "Max. Tumor Uptake", "setting": "[2]", "value": "30.0 ± 6.9", "unit": "% ID/g"}
    ]},
    {"molecule": "O=C([O-])CN1CCN(CC(=O)[O-])CCN(CC(=O)O)C(Cc2ccc(NC(=S)NCCCC[C@H](NC(=O)CCOCCOCCOCCOCCOCCOCCOCCOCCn3cc(-c4cccc(NC(=O)NCCCC[C@H](NC(=O)N[C@@H](CCC(=O)O)C(=O)O)C(=O)O)c4)nn3)C(=O)N[C@@H](CCCCNC(=O)Cc3ccc(I)cc3)C(=O)O)cc2)CN(CC(=O)[O-])CC1.[66Ga+3]", "note": "(some centres unmarked) [66Ga-RPS-066]", "values": [
      {"measurement": "time of maximum uptake in the tumor", "setting": "[1]", "value": 3, "unit": "h"},
      {"measurement": "kidney uptake (image-derived)", "setting": "[1]; 24 h post injection", "value": "0.2±0.1", "unit": "% ID/cm^3"},
      {"measurement": "tumor uptake (image-derived)", "setting": "[1]; 24 h post injection", "value": "5.5±0.4", "unit": "% ID/cm^3"},
      {"measurement": "maximum uptake in the tumor (image-derived)", "setting": "[1]", "value": "7.8±0.7", "unit": "% ID/cm^3"}
    ]},
    {"molecule": "O=C(O)CC[C@H](NC(=O)N[C@@H](CCCCNC(=O)Nc1cccc(-c2cn(CCOCCOCCOCCOCCC(=O)N[C@@H](CCCCNC(=S)Nc3ccc(CC4CN(CC(=O)O)CCN(CC(=O)O)CCN(CC(=O)O)CCN4CC(=O)O)cc3)C(=O)N[C@@H](CCCCNC(=O)Cc3ccc(I)cc3)C(=O)O)nn2)c1)C(=O)O)C(=O)O", "note": "(stereo partly drawn) [RPS-061, (((1S)-1-carboxy-5-(3-(3-(1-((17S,20S)-20-carboxy-27-(4-iodophenyl)-15,18,26-trioxo-17-(4-(3-(4-((1,4,7,10-tetrakis(carboxymethyl)-1,4,7,10-tetraazacyclododecan-2-yl)methyl)phenyl)thioureido)butyl)-3,6,9,12-tetraoxa-16,19,25-triazaheptacosyl)-1H-1,2,3-triazol-4-yl)phenyl)ureido)pentyl)carbamoyl)-L-glutamic acid]", "values": [
      {"measurement": "Max. Tumor Uptake", "setting": "[2]", "value": "20.4 ± 3.1", "unit": "% ID/g"}
    ]},
    {"molecule": "O=C([O-])CN1CCN(CC(=O)[O-])CCN(CC(=O)O)C(Cc2ccc(NC(=S)NCCCC[C@H](NC(=O)CCOCCOCCOCCn3cc(-c4cccc(NC(=O)NCCCC[C@H](NC(=O)N[C@@H](CCC(=O)O)C(=O)O)C(=O)O)c4)nn3)C(=O)N[C@@H](CCCCNC(=O)Cc3ccc(I)cc3)C(=O)O)cc2)CN(CC(=O)[O-])CC1.[66Ga+3]", "note": "(some centres unmarked) [66Ga-RPS-063]", "values": [
      {"measurement": "time of maximum uptake in the tumor", "setting": "[1]", "value": 6, "unit": "h"},
      {"measurement": "tumor uptake (image-derived)", "setting": "[1]; 24 h post injection", "value": "7.9±3.0", "unit": "% ID/cm^3"},
      {"measurement": "maximum uptake in the tumor (image-derived)", "setting": "[1]", "value": "9.5±2.4", "unit": "% ID/cm^3"}
    ]},
    {"molecule": "O=C(O)CCC(NC(=O)NC(CCCCNC(=O)Nc1cccc(-c2cnnn2CC(=O)NC(CCCCNC(=S)Nc2ccc(CC3CN(CC(=O)O)CCN(CC(=O)O)CCN(CC(=O)O)CCN3CC(=O)O)cc2)C(=O)NC(CCCCNC(=O)Cc2ccc(I)cc2)C(=O)O)c1)C(=O)O)C(=O)O", "note": "(centres unmarked) [66Ga-RPS-068, metal not drawn]", "values": [
      {"measurement": "time of maximum uptake in the tumor", "setting": "[1]", "value": 3, "unit": "h"},
      {"measurement": "tumor uptake (image-derived)", "setting": "[1]; 24 h post injection", "value": "8.3±2.8", "unit": "% ID/cm^3"},
      {"measurement": "maximum uptake in the tumor (image-derived)", "setting": "[1]", "value": "9.7±2.0", "unit": "% ID/cm^3"}
    ]},
    {"molecule": "O=C(O)CC[C@H](NC(=O)N[C@@H](CCCCNC(=O)Nc1cccc(-c2cn(CCOCCOCCOCCOCCOCCOCCOCCOCCC(=O)N[C@@H](CCCCNC(=S)Nc3ccc(CC4CN(CC(=O)O)CCN(CC(=O)O)CCN(CC(=O)O)CCN4CC(=O)O)cc3)C(=O)N[C@@H](CCCCNC(=O)Cc3ccc(I)cc3)C(=O)O)nn2)c1)C(=O)O)C(=O)O", "note": "(stereo partly drawn) [RPS-066, (((1S)-1-carboxy-5-(3-(3-(1-((29S,32S)-32-carboxy-39-(4-iodophenyl)-27,30,38-trioxo-29-(4-(3-(4-((1,4,7,10-tetrakis(carboxymethyl)-1,4,7,10-tetraazacyclododecan-2-yl)methyl)phenyl)thioureido)butyl)-3,6,9,12,15,18,21,24-octaoxa-28,31,37-triazanonatriacontyl)-1H-1,2,3-triazol-4-yl)phenyl)ureido)pentyl)carbamoyl)-L-glutamic acid]", "values": [
      {"measurement": "Max. Tumor Uptake", "setting": "[2]", "value": "18.7 ± 1.1", "unit": "% ID/g"}
    ]},
    {"molecule": "O=C([O-])CN1CCN(CC(=O)[O-])CCN(CC(=O)O)C(Cc2ccc(NC(=S)NCCCC[C@H](NC(=O)CCOCCOCCOCCOCCOCCOCCn3cc(-c4cccc(NC(=O)NCCCC[C@H](NC(=O)N[C@@H](CCC(=O)O)C(=O)O)C(=O)O)c4)nn3)C(=O)N[C@@H](CCCCNC(=O)Cc3ccc(I)cc3)C(=O)O)cc2)CN(CC(=O)[O-])CC1.[66Ga+3]", "note": "(some centres unmarked) [66Ga-RPS-069]", "values": [
      {"measurement": "tumor uptake (image-derived)", "setting": "[1]; 24 h post injection", "value": "7.0±3.9", "unit": "% ID/cm^3"}
    ]},
    {"molecule": "O=C(O)CC[C@H](NC(=O)N[C@@H](CCCCNC(=O)Nc1cccc(-c2cnnn2CCOCCOCCOCCOCCOCCOCCOCCOCCOCCOCCOCCOCCC(=O)N[C@@H](CCCCNC(=S)Nc2ccc(CC3CN(CC(=O)O)CCN(CC(=O)O)CCN(CC(=O)O)CCN3CC(=O)O)cc2)C(=O)N[C@@H](CCCCNC(=O)Cc2ccc(I)cc2)C(=O)O)c1)C(=O)O)C(=O)O", "note": "(stereo partly drawn) [RPS-067, (((1S)-1-carboxy-5-(3-(3-(1-((41S,44S)-44-carboxy-51-(4-iodophenyl)-39,42,50-trioxo-41-(4-(3-(4-((1,4,7,10-tetrakis(carboxymethyl)-1,4,7,10-tetraazacyclododecan-2-yl)methyl)phenyl)thioureido)butyl)-3,6,9,12,15,18,21,24,27,30,33,36-dodecaoxa-40,43,49-triazahenpentacontyl)-1H-1,2,3-triazol-5-yl)phenyl)ureido)pentyl)carbamoyl)-L-glutamic acid]", "values": [
      {"measurement": "Max. Tumor Uptake", "setting": "[2]", "value": "7.6 ± 1.2", "unit": "% ID/g"}
    ]},
    {"molecule": "O=C(O)CC[C@H](NC(=O)N[C@@H](CCCCNC(=O)Nc1cccc(-c2cn(CCOCCOCCOCCOCCOCCOCCC(=O)N[C@@H](CCCCNC(=S)Nc3ccc(CC4CN(CC(=O)O)CCN(CC(=O)O)CCN(CC(=O)O)CCN4CC(=O)O)cc3)C(=O)N[C@@H](CCCCNC(=O)Cc3ccc(I)cc3)C(=O)O)nn2)c1)C(=O)O)C(=O)O", "note": "(stereo partly drawn) [RPS-069, (((1S)-1-carboxy-5-(3-(3-(1-((23S,26S)-26-carboxy-33-(4-iodophenyl)-21,24,32-trioxo-23-(4-(3-(4-((1,4,7,10-tetrakis(carboxymethyl)-1,4,7,10-tetraazacyclododecan-2-yl)methyl)phenyl)thioureido)butyl)-3,6,9,12,15,18-hexaoxa-22,25,31-triazatritriacontyl)-1H-1,2,3-triazol-4-yl)phenyl)ureido)pentyl)carbamoyl)-L-glutamic acid]", "values": [
      {"measurement": "Max. Tumor Uptake", "setting": "[2]", "value": "17.0 ± 2.1", "unit": "% ID/g"}
    ]}
  ]
}
